Consider 21 compounds from ChEMBL document CHEMBL4229557, “Synthesis and SAR of new isoxazole-triazole bis-heterocyclic compounds as analogues of natural lignans with antiparasitic activity” (Bioorg Med Chem, 2018).

The subject of data set [1] is Trypanosoma cruzi. Put plainly: Growth inhibition of Trypanosoma cruzi Tulahuen amastigote forms infected in human THP1 cells after 72 hrs by beta-galactosidase reporter gene assay. Format: functional.
For a further data set, the system named is Leishmania amazonensis. The data set can be described thus: Growth inhibition of Leishmania amazonensis MHOM/BR/77/LTB0016 amastigote forms expressing beta-galactosidase infected in human THP1 cells at 100 uM by colorimetrc assay relative to control. The conditions noted are these: for inhibition of growth at 100 µM: MHOM/BR/77/LTB0016, THP-1, read-out: GI. Format: functional.

Data set [2] has as its system Trypanosoma cruzi. The data set can be described thus: Growth inhibition of Trypanosoma cruzi Tulahuen amastigote forms infected in human THP1 cells at 100 uM after 72 hrs by beta-galactosidase reporter gene assay relative to control. The class given is functional. To be noted: THP-1, 72 h, read-out: GI.
Data set [3] is described as follows: Selectivity index, ratio of CC50 for human THP1 cells to GI50 for Trypanosoma cruzi Tulahuen amastigote forms infected in human THP1 cells. The conditions noted are these: read-out: Selectivity Index. Format: toxicity, cell-based.
Data set [4] concerns the target Trypanothione reductase (Trypanosoma cruzi) (UniProt P28593). Put plainly: Inhibition of Trypanosoma cruzi Trypanothione reductase expressed in Escherichia coli BL21(DE3) at 100 uM using T(S)2 as substrate incubated for 30 mins measured for 30 mins in presence of NADPH by DTNB reagent based assay relative to control.
A short description of data set [5]: Cytotoxicity against human THP1 cells after 72 hrs by MTT assay. Format: cell-based. To be noted: THP-1 cells.

The source made the active and inactive calls. The rule behind the calls is not given here.

Sequence of Trypanothione reductase (Trypanosoma cruzi) (P28593 whole entry, looked up): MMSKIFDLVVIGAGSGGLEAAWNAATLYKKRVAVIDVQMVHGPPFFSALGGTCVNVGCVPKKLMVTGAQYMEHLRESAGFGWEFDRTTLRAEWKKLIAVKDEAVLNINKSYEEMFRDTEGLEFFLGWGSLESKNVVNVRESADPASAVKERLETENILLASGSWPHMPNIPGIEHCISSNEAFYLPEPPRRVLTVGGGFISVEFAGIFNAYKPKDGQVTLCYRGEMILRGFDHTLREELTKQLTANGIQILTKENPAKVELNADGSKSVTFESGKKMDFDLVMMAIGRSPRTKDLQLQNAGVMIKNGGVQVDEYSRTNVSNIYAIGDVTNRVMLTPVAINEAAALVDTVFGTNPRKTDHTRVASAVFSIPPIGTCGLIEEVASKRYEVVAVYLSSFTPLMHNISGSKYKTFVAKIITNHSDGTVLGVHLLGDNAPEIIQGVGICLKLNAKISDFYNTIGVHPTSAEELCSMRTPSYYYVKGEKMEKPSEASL

`CN(C)CCCN1c2ccccc2CCc2ccc(Cl)cc21` [CLOMIPRAMINE] yielded a 50% growth inhibitory concentration (GI50) with Trypanosoma cruzi [1] (THP-1, 72 h) of 14 µM.
Regarding `COc1ccc(-c2cc(Cn3cc(-c4cc(OC)cc(OC)c4)nn3)on2)cc1`, in the data set on Leishmania amazonensis, the “growth inhibition (GI)” value was “inactive”. Further, in the data set on Trypanosoma cruzi [2], the inhibition of growth at 100 µM is 3.6%. The compound further came in with a 50% growth inhibitory concentration (GI50) in the data set with Trypanosoma cruzi [1] (THP-1, 72 h) above 100 µM.
For `COc1ccc(-c2cc(Cn3cc(-c4ccc(C)cc4)nn3)on2)cc1OC`, in that order: “inactive”, 7.6% and above 100 µM.
For `CCCCCc1ccc(-c2cn(Cc3cc(-c4ccc5c(c4)OCO5)no3)nn2)cc1`, the inhibition of growth at 100 µM worked out at 1.7% with Leishmania amazonensis and 48.9% in the data set on Trypanosoma cruzi [2]. Further, the GI50 in the data set on Trypanosoma cruzi [1] (THP-1, 72 h) was above 100 µM.
With `Cc1ccc(-c2cn(Cc3cc(-c4ccccc4)no3)nn2)cc1`, the “growth inhibition (GI)” value in the data set on Leishmania amazonensis was “inactive”. Further, the inhibition of growth at 100 µM with Trypanosoma cruzi [2] was 45.2%. In addition, in the data set with Trypanosoma cruzi [1] (THP-1, 72 h), the 50% growth inhibitory concentration (GI50) was above 100 µM.
As for `FC(F)(F)Oc1ccc(-c2cn(Cc3cc(-c4ccccc4)no3)nn2)cc1`, the “growth inhibition (GI)” value in the data set on Leishmania amazonensis was “inactive”. Also, in the data set with Trypanosoma cruzi [2], the inhibition of growth at 100 µM is 28.7%. For the same compound, the 50% growth inhibitory concentration (GI50) with Trypanosoma cruzi [1] (THP-1, 72 h) is above 100 µM.
With `CCCCCc1ccc(-c2cn(Cc3cc(-c4ccccc4)no3)nn2)cc1`, in the data set with Leishmania amazonensis, the “growth inhibition (GI)” value was “inactive”. For the same compound, the inhibition of growth at 100 µM in the data set on Trypanosoma cruzi [2] is 0%. In addition, in the data set with Trypanosoma cruzi [1], the GI50 result is “inactive”.
Consider `FC(F)(F)Oc1ccc(-c2cn(Cc3cc(-c4ccc5c(c4)OCO5)no3)nn2)cc1`, for which the “growth inhibition (GI)” value with Leishmania amazonensis is “inactive”. The inhibition of growth at 100 µM with Trypanosoma cruzi [2] amounted to 26.8%. This compound registered a 50% growth inhibitory concentration (GI50) in the data set on Trypanosoma cruzi [1] (THP-1, 72 h) above 100 µM.
The matching figures for `COc1ccc(-c2cc(Cn3cc(-c4ccc([N+](=O)[O-])cc4)nn3)on2)cc1OC`: “inactive”, 37.8% and above 100 µM.
Take `COc1ccc(-c2cn(Cc3cc(-c4ccccc4)no3)nn2)cc1`: in the data set on Leishmania amazonensis, the “growth inhibition (GI)” value is “inactive”. Besides, in the data set with Trypanosoma cruzi [2], the inhibition of growth at 100 µM amounted to 43.3%. Also, in the data set with Trypanosoma cruzi [1] (THP-1, 72 h), the GI50 was above 100 µM.
The matching figures for `COc1ccc(-c2cn(Cc3cc(-c4ccc(OC)cc4)no3)nn2)cc1`: “inactive”, 43.2% and above 100 µM.
Regarding `COc1ccc(-c2cc(Cn3cc(-c4ccc(OC(F)(F)F)cc4)nn3)on2)cc1OC`, the “growth inhibition (GI)” value with Leishmania amazonensis was “inactive”. For the same compound, in the data set with Trypanosoma cruzi [2], the inhibition of growth at 100 µM was found to be 78.5%. Moreover, the selectivity ratio in data set [3] worked out at 5.7. In addition, the GI50 in the data set with Trypanosoma cruzi [1] (THP-1, 72 h) amounted to 40.1 µM. In addition, the inhibition in data set [4] amounted to 0%. It took 227 µM to reach half-maximal cytotoxicity in data set [5] (CC50 at 72 h).
For the compound `COc1ccc(-c2cc(Cn3cc(-c4ccc(OC(F)(F)F)cc4)nn3)on2)cc1`, the “growth inhibition (GI)” value in the data set on Leishmania amazonensis was “inactive”. Moreover, in the data set with Trypanosoma cruzi [2], the inhibition of growth at 100 µM is 26%. The compound further returned a 50% growth inhibitory concentration (GI50) with Trypanosoma cruzi [1] (THP-1, 72 h) above 100 µM.
As to `Cc1cc(C)c(-c2cn(Cc3cc(-c4ccccc4)no3)nn2)cc1C`, in the data set with Leishmania amazonensis, the “growth inhibition (GI)” value was “inactive”. Further, the inhibition of growth at 100 µM in the data set on Trypanosoma cruzi [2] stood at 89.5%. For the same compound, in data set [3], the selectivity ratio worked out at 2.3. In addition, halving of growth in the data set on Trypanosoma cruzi [1] (THP-1, 72 h) (GI50) required 88.4 µM. For the same compound, in data set [4], the inhibition is 0%. The same compound returned a 50% cytotoxic concentration (CC50) at 72 h in data set [5] of 200 µM.
On to `COc1cc(OC)cc(-c2cn(Cc3cc(-c4ccc5c(c4)OCO5)no3)nn2)c1`, for which, in the data set on Leishmania amazonensis, the “growth inhibition (GI)” value is “inactive”. In addition, the inhibition of growth at 100 µM in the data set on Trypanosoma cruzi [2] worked out at 87.9%. In data set [3], the selectivity ratio stood at 4.2. For the same compound, in the data set with Trypanosoma cruzi [1] (THP-1, 72 h), the GI50 stood at 49.9 µM. Moreover, the inhibition in data set [4] amounted to 0%. The same compound gave a half-maximal cytotoxic concentration (CC50) at 72 h in data set [5] of 208 µM.
Regarding `O=[N+]([O-])c1ccc(-c2cn(Cc3cc(-c4ccccc4)no3)nn2)cc1`, the “growth inhibition (GI)” value in the data set on Leishmania amazonensis was “inactive”. Further, the inhibition of growth at 100 µM in the data set with Trypanosoma cruzi [2] is 46.9%. Further, the GI50 with Trypanosoma cruzi [1] (THP-1, 72 h) was above 100 µM.
The matching figures for `Cc1cc(C)c(-c2cn(Cc3cc(-c4ccc5c(c4)OCO5)no3)nn2)cc1C`: “inactive”, 13.4% and above 100 µM.
Turning to `COc1ccc(-c2cn(Cc3cc(-c4ccc5c(c4)OCO5)no3)nn2)cc1`, the results for the inhibition of growth at 100 µM in the data set on Leishmania amazonensis and in the data set on Trypanosoma cruzi [2] were 2.8% and 9.9%, respectively. The same compound returned a GI50 in the data set on Trypanosoma cruzi [1] (THP-1, 72 h) above 100 µM.
For the compound `COc1ccc(-c2cc(Cn3cc(-c4ccccc4OC)nn3)on2)cc1OC`, the “growth inhibition (GI)” value in the data set on Leishmania amazonensis is “inactive”. Besides, the inhibition of growth at 100 µM in the data set on Trypanosoma cruzi [2] was 43.7%. Moreover, the GI50 with Trypanosoma cruzi [1] (THP-1, 72 h) is above 100 µM.
Regarding `COc1ccc(-c2cc(Cn3cc(-c4ccccc4)nn3)on2)cc1OC`, the “growth inhibition (GI)” value in the data set with Leishmania amazonensis is “inactive”. Also, the inhibition of growth at 100 µM in the data set with Trypanosoma cruzi [2] was found to be 12.2%. In the data set on Trypanosoma cruzi [1] (THP-1, 72 h), the GI50 was above 100 µM.
Take `Cc1ccc(C)c(-c2cn(Cc3cc(-c4ccccc4)no3)nn2)c1`: the “growth inhibition (GI)” value with Leishmania amazonensis is “inactive”. Also, the inhibition of growth at 100 µM with Trypanosoma cruzi [2] amounted to 0%. Moreover, the GI50 result with Trypanosoma cruzi [1] was “inactive”.
